Here are results for one compound from ChEMBL document CHEMBL1144499, “Complanadines C and D, new dimeric alkaloids from Lycopodium complanatum” (Bioorg Med Chem, 2007).

Structures are written as SMILES. In brackets after ≈: the same amount, converted by molar mass. Activity calls are given as the source filed them.

The test system of assay [1] is Cryptococcus neoformans. The experiment in a line: Antimicrobial activity against Cryptococcus neoformans. In kind it is functional.
In assay [2] the test system is Aspergillus niger. Description: Antimicrobial activity against Aspergillus niger. It is filed as functional.
For assay [3], the system named is L1210. The experiment in a line: Cytotoxicity against mouse L1210 cells. It is filed as cell-based.
Assay [4] relates to 1321-N1. Description: Enhancement of NGF mRNA expression in human 1321N1 cells. In kind it is functional, cell-based.

A word on the MIC: it is the smallest concentration in the dilution series that meets the test's criterion for growth inhibition. A higher MIC goes with a less susceptible organism. What is called IC50 is the concentration at which inhibition is half-maximal. A higher IC50 goes with lower potency. Take `C[C@@H]1C[C@H]2CC3=C(CC[C@H](c4cnc5c(c4)[C@@]46C[C@H](C)C[C@@H](C5)[C@H]4CCCN6)N3)[C@]3(C1)NCCC[C@H]23` [COMPLANADINE D]: the MIC in assay [1] was 0.26 µg/mL (≈ 0.534 µM); in assay [2], 4.16 µg/mL (≈ 8.55 µM). This compound came in with an IC50 in assay [3] of 7 µg/mL (≈ 14.4 µM). For the same compound, in assay [4], the outcome was Active.
